Assay: Safety and tolerability
Settings: for Subjects with TEAEs: all evobrutinib doses pooled
[1] = one subject, 200 mg single dose, day 11
[2] = part 1 single dosing, pooled evobrutinib
[3] = part 2 multiple dosing, pooled evobrutinib

Structure (SMILES): C=CC(=O)N1CCC(CNc2ncnc(N)c2-c2ccc(Oc3ccccc3)cc2)CC1 [evobrutinib]
- TEAE: Abdominal pain (SAD 100 mg, n = 6): 0 (0.0) n (%), (number of events)
- TEAE: Amylase increased (SAD 100 mg, n = 6): 0 (0.0) n (%), (number of events)
- TEAE: Application site pruritus (due to ECG stickers) (SAD 100 mg, n = 6): 0 (0.0) n (%), (number of events)
- TEAE: Back pain (SAD 100 mg, n = 6): 0 (0.0) n (%), (number of events)
- TEAE: Contact dermatitis (SAD 100 mg, n = 6): 0 (0.0) n (%), (number of events)
- TEAE: Dizziness (SAD 100 mg, n = 6): 0 (0.0) n (%), (number of events)
- TEAE: Dry eye (SAD 100 mg, n = 6): 0 (0.0) n (%), (number of events)
- TEAE: Dry mouth (SAD 100 mg, n = 6): 0 (0.0) n (%), (number of events)
- TEAE: Dyspepsia (SAD 100 mg, n = 6): 0 (0.0) n (%), (number of events)
- TEAE: Excoriation (SAD 100 mg, n = 6): 0 (0.0) n (%), (number of events)
- TEAE: Headache (SAD 100 mg, n = 6): 0 (0.0) n (%), (number of events)
- TEAE: Lipase increased (SAD 100 mg, n = 6): 0 (0.0) n (%), (number of events)
- TEAE: Multiple injuries (SAD 100 mg, n = 6): 0 (0.0) n (%), (number of events)
- TEAE: Nasal congestion (SAD 100 mg, n = 6): 1 (16.7) (1) n (%), (number of events)
- TEAE: Noncardiac chest pain (SAD 100 mg, n = 6): 0 (0.0) n (%), (number of events)
- TEAE: Odynophagia (SAD 100 mg, n = 6): 0 (0.0) n (%), (number of events)
- TEAE: Overall total (SAD 100 mg, n = 6): 1 (16.7) (1) n (%), (number of events)
- TEAE: URTI (SAD 100 mg, n = 6): 0 (0.0) n (%), (number of events)
- TEAE: Abdominal pain (SAD 200 mg, n = 6): 0 (0.0) n (%), (number of events)
- TEAE: Amylase increased (SAD 200 mg, n = 6): 1 (16.7) (1) n (%), (number of events)
- TEAE: Application site pruritus (due to ECG stickers) (SAD 200 mg, n = 6): 0 (0.0) n (%), (number of events)
- TEAE: Back pain (SAD 200 mg, n = 6): 0 (0.0) n (%), (number of events)
- TEAE: Contact dermatitis (SAD 200 mg, n = 6): 0 (0.0) n (%), (number of events)
- TEAE: Dizziness (SAD 200 mg, n = 6): 1 (16.7) (1) n (%), (number of events)
- TEAE: Dry eye (SAD 200 mg, n = 6): 0 (0.0) n (%), (number of events)
- TEAE: Dry mouth (SAD 200 mg, n = 6): 0 (0.0) n (%), (number of events)
- TEAE: Dyspepsia (SAD 200 mg, n = 6): 0 (0.0) n (%), (number of events)
- TEAE: Excoriation (SAD 200 mg, n = 6): 1 (16.7) (1) n (%), (number of events)
- TEAE: Headache (SAD 200 mg, n = 6): 0 (0.0) n (%), (number of events)
- TEAE: Lipase increased (SAD 200 mg, n = 6): 1 (16.7) (1) n (%), (number of events)
- TEAE: Multiple injuries (SAD 200 mg, n = 6): 0 (0.0) n (%), (number of events)
- TEAE: Nasal congestion (SAD 200 mg, n = 6): 0 (0.0) n (%), (number of events)
- TEAE: Noncardiac chest pain (SAD 200 mg, n = 6): 0 (0.0) n (%), (number of events)
- TEAE: Odynophagia (SAD 200 mg, n = 6): 0 (0.0) n (%), (number of events)
- TEAE: Overall total (SAD 200 mg, n = 6): 2 (33.3) (4) n (%), (number of events)
- TEAE: URTI (SAD 200 mg, n = 6): 0 (0.0) n (%), (number of events)
- TEAE: Abdominal pain (SAD 350 mg, n = 6): 0 (0.0) n (%), (number of events)
- TEAE: Amylase increased (SAD 350 mg, n = 6): 0 (0.0) n (%), (number of events)
- TEAE: Application site pruritus (due to ECG stickers) (SAD 350 mg, n = 6): 0 (0.0) n (%), (number of events)
- TEAE: Back pain (SAD 350 mg, n = 6): 0 (0.0) n (%), (number of events)
- TEAE: Contact dermatitis (SAD 350 mg, n = 6): 0 (0.0) n (%), (number of events)
- TEAE: Dizziness (SAD 350 mg, n = 6): 0 (0.0) n (%), (number of events)
- TEAE: Dry eye (SAD 350 mg, n = 6): 0 (0.0) n (%), (number of events)
- TEAE: Dry mouth (SAD 350 mg, n = 6): 0 (0.0) n (%), (number of events)
- TEAE: Dyspepsia (SAD 350 mg, n = 6): 0 (0.0) n (%), (number of events)
- TEAE: Excoriation (SAD 350 mg, n = 6): 0 (0.0) n (%), (number of events)
- TEAE: Headache (SAD 350 mg, n = 6): 0 (0.0) n (%), (number of events)
- TEAE: Lipase increased (SAD 350 mg, n = 6): 0 (0.0) n (%), (number of events)
- TEAE: Multiple injuries (SAD 350 mg, n = 6): 1 (16.7) (1) n (%), (number of events)
- TEAE: Nasal congestion (SAD 350 mg, n = 6): 0 (0.0) n (%), (number of events)
- TEAE: Noncardiac chest pain (SAD 350 mg, n = 6): 0 (0.0) n (%), (number of events)
- TEAE: Odynophagia (SAD 350 mg, n = 6): 0 (0.0) n (%), (number of events)
- TEAE: Overall total (SAD 350 mg, n = 6): 1 (16.7) (1) n (%), (number of events)
- TEAE: URTI (SAD 350 mg, n = 6): 0 (0.0) n (%), (number of events)
- TEAE: Abdominal pain (SAD 500 mg, n = 6): 0 (0.0) n (%), (number of events)
- TEAE: Amylase increased (SAD 500 mg, n = 6): 0 (0.0) n (%), (number of events)
- TEAE: Application site pruritus (due to ECG stickers) (SAD 500 mg, n = 6): 0 (0.0) n (%), (number of events)
- TEAE: Back pain (SAD 500 mg, n = 6): 0 (0.0) n (%), (number of events)
- TEAE: Contact dermatitis (SAD 500 mg, n = 6): 0 (0.0) n (%), (number of events)
- TEAE: Dizziness (SAD 500 mg, n = 6): 0 (0.0) n (%), (number of events)
- TEAE: Dry eye (SAD 500 mg, n = 6): 1 (16.7) (1) n (%), (number of events)
- TEAE: Dry mouth (SAD 500 mg, n = 6): 0 (0.0) n (%), (number of events)
- TEAE: Dyspepsia (SAD 500 mg, n = 6): 0 (0.0) n (%), (number of events)
- TEAE: Excoriation (SAD 500 mg, n = 6): 0 (0.0) n (%), (number of events)
- TEAE: Headache (SAD 500 mg, n = 6): 1 (16.7) (1) n (%), (number of events)
- TEAE: Lipase increased (SAD 500 mg, n = 6): 0 (0.0) n (%), (number of events)
- TEAE: Multiple injuries (SAD 500 mg, n = 6): 0 (0.0) n (%), (number of events)
- TEAE: Nasal congestion (SAD 500 mg, n = 6): 0 (0.0) n (%), (number of events)
- TEAE: Noncardiac chest pain (SAD 500 mg, n = 6): 0 (0.0) n (%), (number of events)
- TEAE: Odynophagia (SAD 500 mg, n = 6): 1 (16.7) (1) n (%), (number of events)
- TEAE: Overall total (SAD 500 mg, n = 6): 2 (33.3) (3) n (%), (number of events)
- TEAE: URTI (SAD 500 mg, n = 6): 0 (0.0) n (%), (number of events)
- TEAE: Abdominal pain (SAD pooled active, n = 36): 0 (0.0) n (%), (number of events)
- TEAE: Amylase increased (SAD pooled active, n = 36): 1 (2.8) (1) n (%), (number of events)
- TEAE: Application site pruritus (due to ECG stickers) (SAD pooled active, n = 36): 0 (0.0) n (%), (number of events)
- TEAE: Back pain (SAD pooled active, n = 36): 1 (2.8) (1) n (%), (number of events)
- TEAE: Contact dermatitis (SAD pooled active, n = 36): 2 (5.6) (2) n (%), (number of events)
- TEAE: Dizziness (SAD pooled active, n = 36): 1 (2.8) (1) n (%), (number of events)
- TEAE: Dry eye (SAD pooled active, n = 36): 1 (2.8) (1) n (%), (number of events)
- TEAE: Dry mouth (SAD pooled active, n = 36): 0 (0.0) n (%), (number of events)
- TEAE: Dyspepsia (SAD pooled active, n = 36): 1 (2.8) (1) n (%), (number of events)
- TEAE: Excoriation (SAD pooled active, n = 36): 1 (2.8) (1) n (%), (number of events)
- TEAE: Headache (SAD pooled active, n = 36): 2 (5.6) (3) n (%), (number of events)
- TEAE: Lipase increased (SAD pooled active, n = 36): 1 (2.8) (1) n (%), (number of events)
- TEAE: Multiple injuries (SAD pooled active, n = 36): 1 (2.8) (1) n (%), (number of events)
- TEAE: Nasal congestion (SAD pooled active, n = 36): 1 (2.8) (1) n (%), (number of events)
- TEAE: Noncardiac chest pain (SAD pooled active, n = 36): 0 (0.0) n (%), (number of events)
- TEAE: Odynophagia (SAD pooled active, n = 36): 1 (2.8) (1) n (%), (number of events)
- TEAE: Overall total (SAD pooled active, n = 36): 9 (25.0) (15) n (%), (number of events)
- TEAE: URTI (SAD pooled active, n = 36): 0 (0.0) n (%), (number of events)
- nontolerated dose (after SAD or MAD administrations): no nontolerated dose could be defined
- Subjects with TEAEs (after multiple dosing): 48.1%
- Subjects with TEAEs (after single dosing): 25%
- toxicity grade of increased amylase [1]: 3 grade
- toxicity grade of increased lipase (dose‐limiting TEAE) [1]: 4 grade
- Subjects with contact dermatitis at locations of ECG pads [2]: 5.6%
- Subjects with headache [2]: 5.6%
- severity of TEAEs (part 2 multiple dosing): All TEAEs reported were mild and no dose‐limiting adverse events were reported
- Subjects with fatigue [3]: 7.4%
- Subjects with gastrointestinal TEAEs [3]: 18.5%
- Subjects with headache [3]: 11.1%
- Subjects with skin irritation due to ECG pads [3]: 7.4%
- Subjects with upper respiratory tract infection [3]: 7.4%
- deaths or treatment-related SAEs (parts 1 and 2): no deaths or SAEs related to treatment

Reference: publication PMC7070898 (Clinical and Translational Science, 2019)
